Assay results reported in patent publication US7968720B2, “Secondary amines as renin inhibitors” (Actelion Pharmaceuticals Ltd., priority 2006, dated 2011).

Molecular target: T1, recombinant human renin (Homo sapiens, UniProt P00797)
T1 sequence (P00797 67-406): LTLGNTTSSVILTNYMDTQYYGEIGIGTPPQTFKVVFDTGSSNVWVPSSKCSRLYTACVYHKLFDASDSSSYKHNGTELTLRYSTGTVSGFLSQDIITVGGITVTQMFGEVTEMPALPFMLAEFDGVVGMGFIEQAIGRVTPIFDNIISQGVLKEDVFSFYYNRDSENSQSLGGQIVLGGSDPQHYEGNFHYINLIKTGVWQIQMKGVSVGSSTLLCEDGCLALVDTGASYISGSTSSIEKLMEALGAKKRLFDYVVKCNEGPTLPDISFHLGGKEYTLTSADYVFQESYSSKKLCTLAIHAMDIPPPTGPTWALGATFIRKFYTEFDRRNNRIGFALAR
Test: Primary renin inhibition assay: IC50 in buffer, 384 well MTP (AngI measured by EIA)
Type: biochemical
Conditions: human tetradecapeptide (1-14) substrate, incubated at 37° C. for 3 h, AngI quantified by EIA
Experimental: 1. Enzyme Immuno Assay (EIA) to Estimate AngI Accumulation and Renin Inhibition
1.1 Preparation of AngI-BSA Conjugate
1.3 mg (1 μmol) of AngI [1-10 (Bachem, H-1680)] and 17 mg (0.26 μmol) of BSA (Fluka, 05475) were dissolved in 4 mL of 0.1M phosphate buffer, pH 7.4, after which 2 mL of a 1:100 dilution of glutaraldehyde in H2O (Sigma G-5882) was added dropwise. The mixture was incubated overnight at 4° C., then dialyzed against 2 liters of 0.9% NaCl, twice for 4 h at rt, followed by dialysis against 2 liters of PBS 1× overnight at rt. The solution was then filtered with a Syringe filter, 0.45 μm (Nalgene, Cat. No. 194-2545). The conjugate can be stored in polypropylene tubes in 0.05% sodium azide at 4° C. for at least 12 months.
1.2 Preparation of BSA-AngI Coated MTP
Microtiter plates (MPT384, MaxiSorp™, Nunc) were incubated overnight at 4° C. with 80 μl of AngI (1-10)/BSA conjugate, diluted 1:100'000 in PBS 1× in a teflon beaker (exact dilution dependent on batch of conjugate), emptied, filled with 90 μl of blocking solution [0.5% BSA (Sigma A-2153) in PBS 1×, 0.02% NaN3], and incubated for at least 2 h at rt, or overnight at 4° C. 96 well MTP (MaxiSorp™, Nunc) were coated with 200 μl conjugate and blocked with 250 μl blocking solution as above, except that the blocking solution contained 3% BSA. The plates can be stored in blocking solution at 4° C. for 1 month.
1.3 AngI-EIA in 384 Well MTP
The AngI (1-10)/BSA coated MTP were washed 3 times with wash buffer (PBS 1×, 0.01% Tween 20) and filled with 75 μl of primary antibody solution (anti-AngI antiserum, pre-diluted 1:10 in horse serum), diluted to a final concentration of 1:100'000 in assay buffer (PBS 1×, 1 mM EDTA, 0.1% BSA, pH 7.4). 5 μl of the renin reaction (or standards in assay buffer) (see below) were added to the primary antibody solution and the plates were incubated overnight at 4° C. After the incubation the plates were washed 3 times with wash buffer and incubated with secondary antibody [anti-rabbit IgG, linked to horseradish peroxidase (Amersham Bioscience, NA 934V), diluted 1:2'000 in wash buffer] for 2 h at rt. The plates were washed 3 times with wash buffer and then incubated for 1 h at rt with substrate solution [1.89 mM ABTS (2,2′-azino-di-(3-ethyl-benzthiazolinsulfonate)] (Roche Diagnostics, 102 946) and 2.36 mM H2O2 [30%, (Fluka, 95300] in substrate buffer (0.1M sodium acetate, 0.05M sodium dihydrogen phosphate, pH 4.2). The OD of the plate was read at 405 nm in a microplate reader (FLUOStar Optima from BMG). The production of AngI during the renin reaction was quantified by comparing the OD of the sample with the OD of a standard curve of AngI(1-10), measured in parallel.
2. Primary Renin Inhibition Assay: IC50 in Buffer, 384 Well MTP
The renin assay was adapted from an assay described before (Fischli W. et al., Hypertension, 1991, 18:22-31) and consists of two steps: in the first step, recombinant human renin is incubated with its substrate (commercial human tetradecapeptide renin substrate) to create the product Angiotensin I (AngI). In the second step, the accumulated AngI is measured by an immunological assay (enzyme immuno assay, EIA). The detailed description of this assay is found below. The EIA is very sensitive and well suited for renin activity measurements in buffer or in plasma. Due to the low concentration of renin used in this assay (2 fmol per assay tube or 10 pM) it is possible to measure inhibitor affinities in this primary assay down to low pM concentration.
Recombinant human renin (3 pg/μl) in assay buffer (PBS 1×, 1 mM EDTA, 0.1% BSA, pH 7.4), human tetradecapeptide (1-14) substrate (Bachem, M-1120) [5 μM in 10 mM HCl], hydroxyquinoline sulfate (Fluka, 55100) [30 mM in H2O] and assay buffer were premixed at 4° C. at a ratio of 100:30:10:145. 47.5 μl per well of this premix was transferred into polypropylene plates (MTP384, Nunc). […]

| Structure (SMILES) | IC50 [nM] |
| --- | --- |
| COCCCc1ccc(Cl)c(CN(C(=O)C2=C(c3ccc(OCc4cc(-c5c(F)ccc(F)c5Cl)no4)cc3)C[C@@H]3CN(C(C)=O)C[C@H]2N3)C2CC2)c1 [Example 50, (1R,5S)-3-Acetyl-7-{4-[3-(2-chloro-3,6-difluoro-phenyl)-isoxazol-5-ylmethoxy]-phenyl}-3,9-diaza-bicyclo[3.3.1]non-6-ene-6-carboxylic acid [2-chloro-5-(3-methoxy-propyl)benzyl]-cyclopropyl-amide] | 0.24 |
| CNC(=O)OCCc1ccc(Cl)c(CN(C(=O)[C@H]2CNCC[C@@H]2c2ccc(N3CC[C@@H](Oc4c(Cl)cc(C)cc4Cl)C3)nc2)C2CC2)c1 [Example 110, Methyl-carbamic Acid 2-{4-chloro-3-[(cyclopropyl-{(3′R,4′S)-6-[(R)-3-(2,6-dichloro-4-methyl-phenoxy)-pyrrolidin-1-yl]-1′,2′,3′,4′,5′,6′-hexahydro-[3,4′]bipyridinyl-3′-carbonyl}-amino)-methyl]-phenyl}-ethyl Ester] | 0.39 |
